Read-outs that look alike come from different tables or passages of the source. Blank lines part the entries; values can stand above or below the compound they belong to.
Experiments:
[1] = tested on: Ca^++ surcharge in arterial regions (femoral, mesenteric, aortic etc.); assay: Inhibition of the Ca++ surcharge after treatment with vitamin D3 in rats; assay type: in vivo, rat; conditions: administered twice daily; for minimal effective dose: Rattus norvegicus, 72 h, oral, 3 days
Description: 1) Inhibition of the Ca^++ surcharge after treatment with vitamin D3 in rats
A test was performed on rats, to which 300,000 IU/kg of vitamin D3 were administered intramuscularly, followed by oral administration of a daily dose of the compound to be studied. The oral treatment using the compound to be tested was continued for 3 days, the animals were sacrificed and the Ca^++ was then assayed in various arterial regions (femoral, mesenteric, aortic etc.).

smooth muscle cells = assay: Inhibition of the proliferation of smooth muscle cells (general statements); assay type: cell-based; conditions: qualitative statement
[2] = tested on: human aortic smooth muscle cells; assay: in vitro inhibition of proliferation of human aortic smooth muscle cells; assay type: cell-based; conditions: read-out: IC50 (inhibition of cell proliferation)
Description: "in vitro" tests were carried out using human aortic smooth muscle cells at rest (10^3 cells per test).
These cells were incubated in the presence of minimum eagle medium to which 5% of an agent inducing a cell proliferation was added. These tests were performed with various increasing doses of the compound to be studied compared with controls.

[3] = tested on: rabbit carotid arteries (myointimal proliferation); assay: Inhibition of myointimal proliferation induced in rabbit carotid arteries after lesion of the endothelium; assay type: in vivo; conditions: oral, 16 days
Description: 2) Inhibition of myointimal proliferation induced in rabbit carotid arteries after lesion of the endothelium For this purpose, rabbits from which the endothelium of the carotid artery was removed were used. Two hours before the lesion, the compound to be studied was administered orally. The treatment was continued orally, daily for 16 days, and the surface areas of the intima and of the media were then determined by morphometric measurement.

[4] = Solubility tests in water of SR 33805 salts; assay type: physicochemical; conditions: for solubility: (2) water of pH = 3.6
Description: (1) solubility in water at 25° C. after stirring for 72 hours
(2) solubility in water of pH = 3.6
(3) solubility after addition of the product to be tested to water at
70° C., stirring and continuation of stirring for 72 h at […]

cardiovascular system = assay: Activity on the cardiovascular system
calcium translocation = assay: Inhibition of calcium translocation in vitro; assay type: biochemical
[5] = Hygroscopicity and storage stability of SR 33805 salts; assay type: physicochemical
[6] = (3) added to water at 70° C., then stirring 72 h at 25° C., read-out: solubility after addition of the product to be tested to water at 70° C., stirring and continuation of stirring for 72 h at 25° C.
[7] = water, (1) water, 25° C., stirring 72 hours, read-out: solubility in water at 25° C. after stirring for 72 hours
[8] = Homo sapiens, 72 h, inducing agent: foetal growth factor, 3 days incubation
[9] = Homo sapiens, Platelet, 72 h, inducing agent: platelet derived growth factor, 3 days incubation

Compound: 3-isopropyl-1-[4-{3-[N-methyl-N-(3,4-dimethoxyphenethyl)amino]propoxy}benzenesulphonyl]-indolizine [Fantofarone]
- dose from which significant decrease in the total Ca content ([1]; artery not specified, same experimental conditions): 100 mg/kg
- inhibition of the proliferation of smooth muscle cells (smooth muscle cells): devoid of such properties or have shown themselves to be endowed with these properties at high, or even subtoxic, doses
- IC50 ([2]; inducing agent: fetal calf serum, 3 days incubation): 5500 nM
- IC50 ([2]; inducing agent: foetal growth factor, 3 days incubation): 2000 nM
- IC50 ([2]; inducing agent: platelet derived growth factor, 3 days incubation): > 10000 nM
- effect on myointimal hyperplasia ([3]; maximum dose 12 mg/kg): no significant effect

- solubility [4]: 190 µg/mL
- solubility thermodynamic at 72 h [4, 6]: 310 µg/mL
- solubility thermodynamic at 72 h [4, 7]: 70 µg/mL
Compound: COc1ccc(CCN(C)CCCOc2ccc(S(=O)(=O)c3c(C(C)C)c4ccccc4n3C)cc2)cc1OC.O=C(O)C(=O)O [SR 33805 A, 1-Methyl-3-isopropyl-2-[4-{3-[N-methyl-N-(3,4-dimethoxyphenethyl)amino]propoxy}benzenesulphonyl]indole hydrogen oxalate]

Compound: COc1ccc([C@@H]2Sc3ccccc3N(CCN(C)C)C(=O)[C@@H]2OC(C)=O)cc1 [Diltiazem]
- effect on myointimal hyperplasia ([3]; maximum dose twice 6 mg/kg): no significant effect

Compound: COc1ccc(CCN(C)CCCOc2ccc(S(=O)(=O)c3c(C(C)C)c4ccccc4n3C)cc2)cc1OC [SR 33805, 1-methyl-3-isopropyl-2-[4-{3-[N-methyl-N-(3,4-dimethoxyphenethyl)amino]propoxy}benzenesulphonyl]indole]
- inhibition of the proliferation of smooth muscle cells (smooth muscle cells): most interesting inhibitory potentiality

Compound: COc1ccc(CCN(C)CCCC(C#N)(c2ccc(OC)c(OC)c2)C(C)C)cc1OC (stereo not drawn) [Verapamil]
- inhibition of the proliferation of smooth muscle cells (smooth muscle cells): devoid of such properties or have shown themselves to be endowed with these properties at high, or even subtoxic, doses
- IC50 ([2]; Homo sapiens, 72 h): 10000 nM
- effect on myointimal hyperplasia ([3]; maximum dose twice 6 mg/kg): no significant effect

Compound: COC(=O)C1=C(C)NC(C)=C(C(=O)OC)C1c1ccccc1[N+](=O)[O-] [Nifedipine]
- IC50 [2, 8]: 1000 nM
- IC50 [2, 9]: > 10000 nM
- effect on myointimal hyperplasia ([3]; maximum dose 6 mg/kg or twice 6 mg/kg): no significant effect

Compound: CNCCCOc1ccc(S(=O)(=O)c2c(C(C)C)c3ccccc3n2C)cc1 [SR 34549, 1-methyl-3-isopropyl-2-{4-[3-(N-methylamino)propoxy]benzenesulfonyl} indole]
- inhibition of the proliferation of smooth muscle cells (smooth muscle cells): strong activity
- activity on the cardiovascular system (cardiovascular system): very moderate or lack of activity
- inhibition of the calcium translocation (calcium translocation): devoid of inhibitory properties

- solubility [4]: 100 µg/mL
- solubility thermodynamic at 72 h [4, 6]: 260 µg/mL
- solubility thermodynamic at 72 h [4, 7]: 150 µg/mL
Compound: COc1ccc(CCN(C)CCCOc2ccc(S(=O)(=O)c3c(C(C)C)c4ccccc4n3C)cc2)cc1OC [SR 33805 B]

- solubility [4]: 79900 µg/mL
- solubility thermodynamic at 72 h [4, 6]: 98300 µg/mL
- aqueous solubility ([4]; in words, contrary to the other salts of SR 33805): good aqueous solubility
- solubility thermodynamic at 72 h [4, 7]: 67500 µg/mL
- hygroscopicity [5]: no signs of hygroscopicity
- stability under various storage conditions ([5]; various storage conditions): good stability
Compound: COc1ccc(CCN(C)CCCOc2ccc(S(=O)(=O)c3c(C(C)C)c4ccccc4n3C)cc2)cc1OC.CS(=O)(=O)O [SR 33805 C, 1-methyl-3-isopropyl-2-[4-{3-[N-methyl-N-(3,4-dimethoxyphenethyl)amino]propoxy}benzenesulphonyl]-indole methanesulphonate]
- minimal effective dose ([1]; aorta, read-out: dose from which significant inhibition of the Ca++ surcharge in the aorta): 2 mg/kg
- minimal effective dose ([1]; mesenteric artery, read-out: dose from which significant inhibition of the Ca++ surcharge in the mesenteric artery): 5 mg/kg
- IC50 ([2]; Homo sapiens, 72 h, inducing agent: fetal calf serum, 3 days incubation): 900 nM
- IC50 [2, 8]: 600 nM
- IC50 [2, 9]: 300 nM
- minimal effective dose ([3]; Oryctolagus cuniculus, 384 h, read-out: dose from which significant inhibition of myointimal proliferation): 1.5 mg/kg
- inhibition of myointimal proliferation ([3]; from the dose of 1.5 mg/kg, significant): -58%
